This is an account of results in patent US6750239B2, “Pyrazole-derived kinase inhibitors and uses thereof” (Vertex Pharmaceuticals Incorporated, priority 2001, dated 2004).

Broadly, the Ki is the dissociation constant of the complex between target and ligand, obtained from inhibition or displacement. What is called IC50 is the concentration at which inhibition is half-maximal.

Chain of activated ERK2 (P28482 whole entry): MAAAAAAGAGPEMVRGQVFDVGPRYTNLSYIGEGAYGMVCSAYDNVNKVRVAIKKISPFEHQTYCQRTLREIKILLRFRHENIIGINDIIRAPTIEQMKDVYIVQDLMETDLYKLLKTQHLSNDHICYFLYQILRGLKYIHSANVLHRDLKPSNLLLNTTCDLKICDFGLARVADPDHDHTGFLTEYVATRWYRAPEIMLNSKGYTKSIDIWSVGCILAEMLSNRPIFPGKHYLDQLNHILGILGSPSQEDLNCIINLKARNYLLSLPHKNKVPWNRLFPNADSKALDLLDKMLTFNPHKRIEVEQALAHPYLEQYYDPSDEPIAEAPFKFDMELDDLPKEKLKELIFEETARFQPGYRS

The first assay addresses activated ERK2 (Homo sapiens, UniProt P28482). Put plainly: ERK2 inhibition spectrophotometric coupled-enzyme assay. Type of assay: biochemical.
Settings: not given
The method, then:
Compounds are assayed for the inhibition of ERK2 by a spectrophotometric coupled-enzyme assay (Fox et al (1998) Protein Sci 7, 2249). In this assay, a fixed concentration of activated ERK2 (10 nM) is incubated with various concentrations of the compound in DMSO (2.5%) for 10 min. at 30° C. in 0.1 M HEPES buffer, pH 7.5, containing 10 mM MgCl2, 2.5 mM phosphoenolpyruvate, 200 μM NADH, 150 μg/mL pyruvate kinase, 50 μg/mL lactate dehydrogenase, and 200 μM erktide peptide. The reaction is initiated by the addition of 65 μM ATP. The rate of decrease of absorbance at 340 nm is monitored, which indicates the extent of uninhibited enzyme present in the assay. The IC50 is evaluated from the rate data as a function of inhibitor concentration.
The compound numbers correspond to the compound numbers in Tables 1-3.
As for `O=C(N[C@H](CO)c1ccc(F)c(Cl)c1)c1cc(-c2[nH]ncc2-c2ccc(CNCCCl)c(Cl)c2)c[nH]1` [II-35], the Ki is below 1000 nM.

The same assay, now with this note: activated ERK2 10 nM, 65 μM ATP, 30° C., pH 7.5; read-out: ERK2 Inhibitory Activity (Ki class).
Consider “4-{4-[3-Chloro-4-(methanesulfonylamino-methyl)-phenyl]-1H-pyrazol-3-yl}-1H-pyrrole-2-carboxylic acid [1-(3-chloro-4-fluoro-phenyl)-2-hydroxy-ethyl]-amide [II-2]”, for which the Ki was below 1000 nM.
As for `C[C@@H](O)[C@H](N)C(=O)NCc1ccc(-c2cn[nH]c2-c2c[nH]c(C(=O)N[C@H](CO)c3ccc(F)c(Cl)c3)c2)cc1Cl` [II-77], the Ki is below 1000 nM.
As for `CC(O)CCNCc1ccc(-c2cn[nH]c2-c2c[nH]c(C(=O)N[C@H](CO)c3ccc(F)c(Cl)c3)c2)cc1Cl` (stereo partly drawn) [II-32], the Ki is below 1000 nM.
`CC(=O)N[C@H](C(=O)NCc1ccc(-c2cn[nH]c2-c2c[nH]c(C(=O)N[C@H](CO)c3ccc(F)c(Cl)c3)c2)cc1Cl)C(C)C` [II-21]: the Ki was below 1000 nM.
Take `CCOC(=O)C(C)NCc1ccc(-c2cn[nH]c2-c2c[nH]c(C(=O)N[C@H](CO)c3ccc(F)c(Cl)c3)c2)cc1C(F)(F)F` (stereo partly drawn) [II-62]: the Ki is below 1000 nM.
As for `NCCNCc1ccc(-c2cn[nH]c2-c2c[nH]c(C(=O)N[C@H](CO)c3ccc(F)c(Cl)c3)c2)cc1Cl` [II-68], the inhibitory constant (Ki) was below 1000 nM.
Take `CC(C(=O)O)N(C)Cc1ccc(-c2cn[nH]c2-c2c[nH]c(C(=O)N[C@H](CO)c3ccc(F)c(Cl)c3)c2)cc1C(F)(F)F` (stereo partly drawn) [II-58]: the Ki is below 1000 nM.
On to `O=C(CCCO)NCc1ccc(-c2c[nH]nc2-c2c[nH]c(C(=O)NC(CO)c3ccc(F)c(Cl)c3)c2)cc1Cl` (stereo not drawn) [II-8, 4-(4-{3-Chloro-4-[(4-hydroxy-butyrylamino)-methyl]-phenyl}-1H-pyrazol-3-yl)-1H-pyrrole-2-carboxylic acid [1-(3-chloro-4-fluoro-phenyl)-2-hydroxy-ethyl]-amide], for which the Ki was below 1000 nM.
As for `CC(=O)NC(CO)C(=O)NCc1ccc(-c2c[nH]nc2-c2c[nH]c(C(=O)N[C@H](CO)c3ccc(F)c(Cl)c3)c2)cc1Cl` (stereo in doubt) [II-20, 4-(4-{4-[(2-Acetylamino-3-hydroxy-propionylamino)-methyl]-3-chloro-phenyl}-1H-pyrazol-3-yl)-1H-pyrrole-2-carboxylic acid [1-(3-chloro-4-fluoro-phenyl)-2-hydroxy-ethyl]-amide], the Ki is below 1000 nM.
Consider `CC(=O)NC(CO)C(=O)NCc1ccc(-c2cn[nH]c2-c2c[nH]c(C(=O)N[C@H](CO)c3cccc(Cl)c3)c2)cc1Cl` (stereo partly drawn) [II-19], for which the Ki was below 1000 nM.
The same measure, in the same setting: for `CC(NCc1ccc(-c2cn[nH]c2-c2c[nH]c(C(=O)N[C@H](CO)c3ccc(F)c(Cl)c3)c2)cc1Cl)C(=O)N(C)C` (stereo partly drawn) [II-66] the value was below 1000 nM; for `CCOC(=O)NCc1ccc(-c2cn[nH]c2-c2c[nH]c(C(=O)N[C@H](CO)c3ccc(F)c(Cl)c3)c2)cc1Cl` [II-78], below 1000 nM; for `CCNCc1ccc(-c2c[nH]nc2-c2c[nH]c(C(=O)N[C@H](CO)c3ccc(F)c(Cl)c3)c2)cc1Cl` [II-26, 4-[4-(3-Chloro-4-ethylaminomethyl-phenyl)-1H-pyrazol-3-yl]-1H-pyrrole-2-carboxylic acid [1-(3-chloro-4-fluoro-phenyl)-2-hydroxy-ethyl]-amide], below 1000 nM.
As for `CCOC(=O)CC(C)NCc1ccc(-c2cn[nH]c2-c2c[nH]c(C(=O)N[C@H](CO)c3ccc(F)c(Cl)c3)c2)cc1Cl` (stereo partly drawn) [II-72], the Ki was below 1000 nM.
The same measure, in the same setting: for `CC(C)(C)OC(=O)N[C@H](CO)C(=O)NCc1ccc(-c2cn[nH]c2-c2c[nH]c(C(=O)NC(CO)c3ccc(F)c(Cl)c3)c2)cc1Cl` (stereo partly drawn) [II-17] the value was below 1000 nM; for `CCOC(=O)C(C)N(C)Cc1ccc(-c2cn[nH]c2-c2c[nH]c(C(=O)N[C@H](CO)c3ccc(F)c(Cl)c3)c2)cc1Cl` (stereo partly drawn) [II-63], below 1000 nM.
In the case of `CCOC(=O)CNCc1ccc(-c2c[nH]nc2-c2c[nH]c(C(=O)N[C@H](CO)c3ccc(F)c(Cl)c3)c2)cc1Cl` [II-29], the Ki is below 1000 nM.
For the compound `CCCCNCc1ccc(-c2cn[nH]c2-c2c[nH]c(C(=O)NC(CO)c3ccc(F)c(Cl)c3)c2)cc1Cl` (stereo not drawn) [II-7], the Ki is below 1000 nM.
In the case of `N[C@H](CO)C(=O)NCc1ccc(-c2cn[nH]c2-c2c[nH]c(C(=O)NC(CO)c3ccc(F)c(Cl)c3)c2)cc1Cl` (stereo partly drawn) [II-18], the Ki was below 1000 nM.
As to `N[C@@H](CO)C(=O)NCc1ccc(-c2cn[nH]c2-c2c[nH]c(C(=O)N[C@H](CO)c3ccc(F)c(Cl)c3)c2)cc1Cl` [II-75], the Ki was below 1000 nM.
For `C[S+]([O-])CC(=O)NCc1ccc(-c2cn[nH]c2-c2c[nH]c(C(=O)NC(CO)c3ccc(F)c(Cl)c3)c2)cc1Cl` (stereo not drawn) [II-6], the inhibitory constant (Ki) was below 1000 nM.
In the case of `CC(C)NCc1ccc(-c2cn[nH]c2-c2c[nH]c(C(=O)N[C@H](CO)c3ccc(F)c(Cl)c3)c2)cc1Cl` [II-70], the Ki was below 1000 nM.
For the compound `CCN(CC)C(=O)CN(CC(=O)N(CC)CC)Cc1ccc(-c2cn[nH]c2-c2c[nH]c(C(=O)N[C@H](CO)c3ccc(F)c(Cl)c3)c2)cc1Cl` [II-86], the Ki was below 1000 nM.
For the compound `N#CCNCc1ccc(-c2cn[nH]c2-c2c[nH]c(C(=O)N[C@H](CO)c3ccc(F)c(Cl)c3)c2)cc1Cl` [II-33], the inhibition constant Ki is below 1000 nM.
As to `O=C(O)CNCc1ccc(-c2cn[nH]c2-c2c[nH]c(C(=O)N[C@H](CO)c3ccc(F)c(Cl)c3)c2)cc1Cl` [II-81], the Ki is below 1000 nM.
As to `CCOC(=O)C(C)NCc1ccc(-c2cn[nH]c2-c2c[nH]c(C(=O)N[C@H](CO)c3ccc(F)c(Cl)c3)c2)cc1Cl` (stereo partly drawn) [II-55], the Ki was below 1000 nM.

The next assay has as its system Colon cancer cells (HT-29 cell line). Put plainly: ERK inhibition cell proliferation assay (3H-thymidine uptake). Type of assay: cell-based. The conditions noted are these: Homo sapiens, HT-29 cells, 3 days incubation. The protocol: Compounds may be assayed for the inhibition of ERK2 by a cell proliferation assay. In this assay, a complete media is prepared by adding 10% fetal bovine serum and penicillin/streptomycin solution to RPMI 1640 medium (JRH Biosciences). Colon cancer cells (HT-29 cell line) are added to each of 84 wells of a 96 well plate at a seeding density of 10,000 cells/well/150 μL. The cells are allowed to attach to the plate by incubating at 37° C. for 2 hours. A solution of test compound is prepared in complete media by serial dilution to obtain the following concentrations: 20 μM, 6.7 μM, 2.2 μM, 0.74 μM, 0.25 μM, and 0.08 μM. The test compound solution (50 μL) is added to each of 72 cell-containing wells. To the 12 remaining cell-containing wells, only complete media (200 μL) is added to form a control group in order to measure maximal proliferation. To the remaining 12 empty wells, complete media is added to form a vehicle control group in order to measure background. The plates are incubated at 37° C. for 3 days. A stock solution of ^3H-thymidine (1 mCi/mL, New England Nuclear, Boston, Mass.) is diluted to […] in RPMI medium then 20 μL of this solution is added to each well. The plates are further incubated at 37° C. for 8 hours then harvested and analyzed for ^3H-thymidine uptake using a liquid scintillation counter.
The compound `CC(=O)N[C@H](C(=O)NCc1ccc(-c2cn[nH]c2-c2c[nH]c(C(=O)N[C@H](CO)c3ccc(F)c(Cl)c3)c2)cc1Cl)C(C)C` [II-21] returned a 50% inhibitory concentration (IC50) below 10000 nM.
The compound `CCNCc1ccc(-c2c[nH]nc2-c2c[nH]c(C(=O)N[C@H](CO)c3ccc(F)c(Cl)c3)c2)cc1Cl` [II-26, 4-[4-(3-Chloro-4-ethylaminomethyl-phenyl)-1H-pyrazol-3-yl]-1H-pyrrole-2-carboxylic acid [1-(3-chloro-4-fluoro-phenyl)-2-hydroxy-ethyl]-amide] came in with an IC50 below 10000 nM.
Consider `CCCCNCc1ccc(-c2cn[nH]c2-c2c[nH]c(C(=O)NC(CO)c3ccc(F)c(Cl)c3)c2)cc1Cl` (stereo not drawn) [II-7], for which the IC50 was below 10000 nM.
